Here are results for three compounds from paper PMC3275754, “Pregnenolone sulphate-independent inhibition of TRPM3 channels by progesterone” (Cell Calcium, 2012).

What all share (assay type): cell-based
Experiment [1] deals with T1, Transient Receptor Potential Melastatin 3 (TRPM3) (Homo sapiens, UniProt Q9HCF6). The experiment in a line: Ca2+ measurement; […] inhibits PregS-evoked but not nifedipine-evoked TRPM3 activity. Also on record: human TRPM3 expressed in HEK 293 cells.
Experiment [2] concerns the target T1, Transient Receptor Potential Melastatin 3 (TRPM3). The experiment in a line: Overlay binding assay with lysate of HEK […] cells expressing TRPM3-YFP. Also on record: human TRPM3 tagged with YFP.
For experiment [3] the target is unchanged. The experiment in a line: Ca2+ measurement and whole-cell patch-clamp inhibition; steroid overlay binding of TRPM3-YFP lysate. Also on record: human TRPM3 expressed in HEK 293 cells; TRPM3-YFP for overlay. (In general: Patch clamp records ionic current or voltage across a cell membrane.)

T1 sequence (Q9HCF6 whole entry): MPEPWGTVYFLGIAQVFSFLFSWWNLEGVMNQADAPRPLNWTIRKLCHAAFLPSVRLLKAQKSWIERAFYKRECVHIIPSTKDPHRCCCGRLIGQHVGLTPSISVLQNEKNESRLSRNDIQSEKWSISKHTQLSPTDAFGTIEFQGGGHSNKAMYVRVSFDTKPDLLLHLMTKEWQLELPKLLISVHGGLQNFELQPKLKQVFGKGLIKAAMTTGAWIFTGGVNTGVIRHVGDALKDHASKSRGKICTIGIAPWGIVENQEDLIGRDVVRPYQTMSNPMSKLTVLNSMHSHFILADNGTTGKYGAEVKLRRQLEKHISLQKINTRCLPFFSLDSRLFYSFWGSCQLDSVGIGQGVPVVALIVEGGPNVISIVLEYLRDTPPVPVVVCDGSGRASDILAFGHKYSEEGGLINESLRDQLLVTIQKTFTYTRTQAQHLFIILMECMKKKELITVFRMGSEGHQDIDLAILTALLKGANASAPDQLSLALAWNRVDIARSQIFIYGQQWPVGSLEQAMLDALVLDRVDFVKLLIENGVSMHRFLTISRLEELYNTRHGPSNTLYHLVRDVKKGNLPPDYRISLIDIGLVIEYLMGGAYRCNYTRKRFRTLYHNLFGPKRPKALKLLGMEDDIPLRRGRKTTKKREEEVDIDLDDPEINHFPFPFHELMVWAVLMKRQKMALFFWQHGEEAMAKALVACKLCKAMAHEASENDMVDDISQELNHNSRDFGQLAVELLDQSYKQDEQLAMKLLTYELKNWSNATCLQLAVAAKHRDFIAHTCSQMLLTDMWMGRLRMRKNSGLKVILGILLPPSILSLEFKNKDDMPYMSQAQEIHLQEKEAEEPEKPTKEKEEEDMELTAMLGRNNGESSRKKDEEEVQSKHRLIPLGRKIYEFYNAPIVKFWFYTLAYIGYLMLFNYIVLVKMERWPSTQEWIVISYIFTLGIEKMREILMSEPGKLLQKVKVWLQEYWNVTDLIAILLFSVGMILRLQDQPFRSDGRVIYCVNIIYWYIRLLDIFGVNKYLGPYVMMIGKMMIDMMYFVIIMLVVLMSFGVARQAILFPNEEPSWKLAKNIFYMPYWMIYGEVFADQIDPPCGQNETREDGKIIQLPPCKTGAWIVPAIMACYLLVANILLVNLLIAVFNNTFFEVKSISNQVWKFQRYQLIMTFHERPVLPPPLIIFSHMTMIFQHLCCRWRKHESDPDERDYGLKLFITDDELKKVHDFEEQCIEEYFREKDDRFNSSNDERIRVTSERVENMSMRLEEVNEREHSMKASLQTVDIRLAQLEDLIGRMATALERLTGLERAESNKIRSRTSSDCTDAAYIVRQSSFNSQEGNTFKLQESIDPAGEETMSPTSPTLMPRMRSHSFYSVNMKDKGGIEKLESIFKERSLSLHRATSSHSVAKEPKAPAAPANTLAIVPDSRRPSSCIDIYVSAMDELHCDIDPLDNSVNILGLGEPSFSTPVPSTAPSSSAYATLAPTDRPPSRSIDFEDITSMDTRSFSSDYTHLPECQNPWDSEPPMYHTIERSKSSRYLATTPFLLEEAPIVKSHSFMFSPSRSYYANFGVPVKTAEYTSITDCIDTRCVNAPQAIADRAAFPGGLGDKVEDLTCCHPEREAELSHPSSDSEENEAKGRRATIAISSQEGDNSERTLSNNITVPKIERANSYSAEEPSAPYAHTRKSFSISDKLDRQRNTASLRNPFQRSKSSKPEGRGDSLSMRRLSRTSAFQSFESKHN

Take `CS(=O)(=O)c1ccc(C(=O)Nc2ccc(N3CCCC3)cc2)c(Cl)c1` [2-CMNPBC, 2-chloro-4-(methylsulphonyl)-N-[4-(1 pyrrolidinyl)phenyl]benzenecarboxamide]: in experiment [1], the “Ca2+ measurement; 10 μM inhibits PregS-evoked but not nifedipine-evoked TRPM3 ac” value is recorded as “(2-CMNPBC, Fig. 9a), which also inhibited pregnenolone sulphate-evoked TRPM3 activity”.
`CC(C)CCC[C@@H](C)[C@H]1CC[C@H]2[C@@H]3CC=C4C[C@@H](O)CC[C@]4(C)[C@H]3CC[C@]12C` [cholesterol]: the “Overlay binding assay with lysate of HEK 293 cells expressing TRPM3-YFP” value in experiment [2] was “TRPM3 bound to pregnenolone sulphate, progesterone, nifedipine, dihydrotestosterone and cholesterol”.
For `CC(=O)[C@H]1CC[C@H]2[C@@H]3CCC4=CC(=O)CC[C@]4(C)[C@H]3CC[C@]12C` [prog, progesterone], the “Ca2+ measurement and whole-cell patch-clamp inhibition; steroid overlay binding” value in experiment [3] is “TRPM3 bound to pregnenolone sulphate, progesterone, nifedipine, dihydrotestosterone and cholesterol”.
